Measurements from patent publication US20110306035A1, “Methods and Compositions for Detection of a Pathogen, Disease, Medical Condition, or Biomarker Thereof” (priority 2008, published 2011).

Assays:
[1] = target: Echovirus 3C recombinant protease (Echovirus 30, UniProt Q9WN78); test: Echovirus 3C recombinant protease activity with inhibitors or inhibitor cocktails (Camb2); format: biochemical
Description: Phosphoramidon is a strong inhibitor of many bacterial Metalloendoproteinases, thermolysin, and elastase, but a weak inhibitor of collagenase. […] Phosphoramidon was tested using the Echovirus 3C recombinant and pneumococcus (types 6B and 23F) spiking systems.
(§1) The experiment shown in FIG. 22A was performed in the presence of Echo recombinant protease (50 nM) or in the presence of two different strains of pneumococcus 6B and 23F (lysate 1 μl). The inhibitory effect was measured in the presence/absent of Phosphoramidon (20 uM).
The experiment shown in FIG. 22B was performed in the presence of Echo recombinant protease (1:18), in the presence of meningococcus (lysate 3 ul) or in the presence of blood (10 ul).
Enterovirus 3C protease (Echo), WBC lysate (corresponding to 2×10^3 cells per test), Pneomococc lysate (corresponding to 1×10^6 bacteria per test) and Meningococc lysate (corresponding to 1×10^8 bacteria per test) (5 ul each) were spiked into artificial-CSF (45 ul), followed by the addition of the indicated inhibitor cocktails (5 ul each): I8, I9a=I8+Phosphoramidon (90 μM), I9b=I8+2-6-pyridinedicarboxylic acid (2.5 mM) and I10=I8+Phosphoramidon+2-6-pyridinedicarboxylic acid. The samples with the indicated inhibitor cocktails were incubated at RT for 2.5 min followed by the addition of 50 ul 2× reaction buffer containing the substrate camb2 (final concentration 2 μM). […]

pneumococcus 6B = test: Pneumococcus 6B lysate spiking system (Camb2 cleavage); format: biochemical, Streptococcus pneumonia
From the text: (§2) There have been no reports of co-infection of viral and bacterial meningitis. Thus, a test for viral meningitis infection implies a negative result for bacterial meningitis. However, CSF samples infected with bacterial meningitis may have background non-specific activity that leads to false positive results in tests for enterovirus, thereby confusing the results. Background non specific activity in CSF samples could be related to bacterial proteases that can cleave the substrate, leading to a positive signal. The most frequent bacterial meningitis found in CSF include: Streptococcus pneumonia, Neisseria meningitides (meningococc), Haemophilus influenza and Klebsiella pneumonia. Accordingly, Pneumococcus (Streptococcus pneumonia, two different strains 6B and 23F) and meningococcus (Neisseria meningitides) were spiked to simulate the background non specific activity observed in CSF samples and to identify inhibitors to reduce it. A total of more than 40 inhibitors from different groups of inhibitors were tested.
as §1

pneumococcus 23F = test: Pneumococcus 23F lysate spiking system (Camb2 cleavage); format: biochemical, Streptococcus pneumonia
From the text: as §2, §1

Enterovirus 3C protease = test: Enterovirus assay in clinical CSF samples (vs RT-PCR); format: biochemical; conditions: bacterial samples 23-25; new assay conditions
Description: CSF samples obtained from two clinical sites, were tested for presence of enterovirus according to the method of the invention but before the assay conditions were optimized. The samples were also tested with a combination of RT-PCR and other clinical parameters. […] Samples were considered hemolytic if red blood cell (RBC) count was above 100/ul (for the one set) or if the sample's color was reddish (for the other set, RBC count not provided).
Samples whose reaction rate exceeded the cutoff value were considered positive, and those below this value were considered negative.
Each measurement was performed by using 50 uL of CSF sample. 5 ul of inhibitor cocktail (I8) was added to the samples and incubated for 2.5 min. The reaction was initiated by the addition of 50 uL 2× reaction buffer (“2× RB”, 50 mM HEPES pH7.5, 1.8M Na2SO4, 300 mM NaCl, 10% Glycerol, 10 mM EDTA and 10 mM EGTA each) containing the substrate camb2 (final concentration 2 uM).
Thaw samples at room temperature for 30 min in a biological hood. • 2. Prepare assay layout according to the number of samples to be run in the BMG fluorimeter and the well composition shown in Table 54
Prepare sufficient amount of inhibitor cocktail I10 (150 ul for 24 wells). • 4. […] Add Echo protease to p.c. (positive control) wells. • 6. […] Add inhibitor cocktail to all wells. • 8. Add 50 ul 2× RB+substrate to all the wells. • 9. […]

meningococcus = test: Meningococcus lysate spiking system (Camb2 cleavage); format: biochemical, Neisseria meningitides; conditions: 2,6-pyridinedicarboxylic acid 2.5 mM; lysate 3 ul
From the text: as §2
The experiment shown in FIG. 22B was performed in the presence of Echo recombinant protease (1:18), in the presence of meningococcus (lysate 3 ul) or in the presence of blood (10 ul). […]

blood = conditions: 2,6-pyridinedicarboxylic acid 2.5 mM; blood 10 ul
[2] = Phosphoramidon 20 uM, lysate 1 μl
[3] = at least three independent experiments

Echovirus 3C recombinant protease, sequence (Q9WN78 1550-1732): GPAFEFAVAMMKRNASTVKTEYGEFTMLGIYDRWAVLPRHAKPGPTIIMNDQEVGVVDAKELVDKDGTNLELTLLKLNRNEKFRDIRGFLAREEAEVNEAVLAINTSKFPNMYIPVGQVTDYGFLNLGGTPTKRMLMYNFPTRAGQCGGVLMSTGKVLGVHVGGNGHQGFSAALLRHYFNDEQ

Row | Structure (SMILES) | inhibition at 20 µM ([1]; Phosphoramidon 20 uM, Echo recombinant protease 50 nM) [%] | inhibition of pneumococcus activity (pneumococcus 6B; [2]) [%] | inhibition of pneumococcus activity (pneumococcus 6B; [3]) [%] | inhibition of pneumococcus activity (pneumococcus 23F; [2]) [%] | inhibition of pneumococcus activity (pneumococcus 23F; [3]) [%] | effect on unspecific background activity of bacterial CSF samples (Enterovirus 3C protease) | inhibition at 2500 µM [1] [%] | inhibition of meningococcus activity (meningococcus) [%] | inhibition of blood activity (blood) [%]
1 | CC(C)C[C@H](NP(=O)(O)O[C@@H]1O[C@@H](C)[C@H](O)[C@@H](O)[C@H]1O)C(=O)N[C@@H](Cc1c[nH]c2ccccc12)C(=O)O [Phosphoramidon] | 7 | 91 | ~90 | 80 | ~90 | could not abolish | – | – | –
2 | O=C(O)c1cccc(C(=O)O)n1 [2,6-pyridinedicarboxylic acid] | – | – | – | – | – | – | 4.5 | 81 | 0
